The values below come from US4487927A, “3-Phosphonium and 3-phosphoranylidenecephems” (Fujisawa Pharmaceutical Co., Ltd., priority 1979, dated 1984).

Data set [1] relates to Batilus subtilis ATCC 6633. The data set is described as follows: In vitro antimicrobial activity, two-fold agar-plate dilution method (MIC). The class given is cell-based. The following applies: 37° C. for 20 hours, HI-agar; for MIC: 20 h, read-out: minimal inhibitory concentration (MIC). On the procedure:
(§1) In vitro Antimicrobial activity was determined by the two-fold agar-plate dilution method as described below.
(§2) One loopful of an overnight culture of each test strain in Tripticase-soy broth (approximately 10^8 viable cells per ml) was streaked on heart infusion agar (HI-agar containing graded concentrations of antimicrobial agents, and the minimal inhibitory concentration (MIC) was expressed in term of μg/ml after incubation at 37° C. for 20 hours.

Data set [2] has as its system Staphylococcus aureus 209P JC-1. The data set is described as above. In kind it is cell-based. The note with it: 37° C. for 20 hours, HI-agar; for MIC: Staphylococcus aureus, 209P, 20 h, read-out: minimal inhibitory concentration (MIC). On the procedure:
as §1, §2

Data set [3] can be described thus: Determination of serum levels after oral administration in rats (disc method). The class given is in vivo, SD strain. The note with it: rat, 100 mg/kg orally, fasted male SD rats, read-out: Mean Serum Level. On the procedure:
(2) Test 2: Determination of serum levels after oral administration of anti-microbial agents in rats
6 weeks old male rats, SD strain, each weighing 160-230 g.
The test compound A (100 mg/kg) was given orally to rats which had been fasted overnight. At specified intervals, the rats were anethetized with chloroform and blood samples were collected from the heart. The anti-microbial levels in each serum sample were determined by the disc method using standard solutions prepared with serum from rats.

Another data set deals with Escherichia coli 29. The data set is described as follows: Protecting effect in experimental mice infection. The note with it: Escherichia coli 29 injected intraperitoneally; oral dose one hour after injection; 4 days observation; probit method. The class given is in vivo, ICR strain; Escherichia coli. From the text:
(3) Test 3: Protecting effect in experimental mice infection 4-weeks old male mice, ICR strain, each weighing 20.0±1.5 g. 1.3×10^4 cells of pathogenic microorganisms, suspended in 2.5% mucin, were intraperitoneally injected. One hour after the injection, Compound A was orally given.

A further data set relates to Proteus mirabilis 18. The data set is described as follows: In vitro antimicrobial activity, two-fold agar-plate dilution method (MIC). In kind it is cell-based. The note with it: 37° C. for 20 hours, HI-agar, read-out: minimal inhibitory concentration (MIC). On the procedure:
as §1, §2

The test system of a further data set is Proteus mirabilis 1. The data set is described as above. In kind it is cell-based. The note with it: 37° C. for 20 hours, HI-agar, read-out: minimal inhibitory concentration (MIC). The protocol: as §1, §2
The subject of another data set is Proteus vulgaris 2. The description is as above. The following applies: 37° C. for 20 hours, HI-agar, read-out: minimal inhibitory concentration (MIC). In kind it is cell-based. On the procedure: as §1, §2

The structures appear in SMILES notation. Values after ≈ are worked out from the molar mass of the structure shown.

For `C=CC1=C(C(=O)O)N2C(=O)C(NC(=O)[C@H](N)c3cccc(NS(C)(=O)=O)c3)[C@H]2SC1` (stereo partly drawn) [Compound A, 7-[2-(3-Methanesulfonamidophenyl)-D-glycinamido]-3-vinyl-3-cephem-4-carboxylic acid], the MIC came out at 0.1 µg/mL (≈ 0.221 µM) in data set [1] and 1.56 µg/mL (≈ 3.45 µM) in data set [2]. Besides, the concentration at 1 h in data set [3] (1 hour) is 38500 ng/mL. The concentration at 2 h in data set [3] (2 hours) is 34900 ng/mL. Besides, the concentration at 4 h in data set [3] (4 hours) was determined as 31000 ng/mL. The concentration at 6 h in data set [3] (6 hours) worked out at 28800 ng/mL. Besides, in the data set with Escherichia coli 29, the ED50 value came to 0.480 mg/mouse.

As to `C=CC1=C(C(=O)O)N2C(=O)C(NC(=O)Cc3csc(N)n3)[C@H]2SC1` (stereo partly shown) [Compound B, 7-[2-(2-Aminothiazol-4-yl)acetamido]-3-vinyl-3-cephem-4-carboxylic acid], the “minimal inhibitory concentration (MIC)” value in data set [1] stood at 1.56 µg/mL (≈ 4.26 µM). Moreover, the MIC in data set [2] came out at 1.56 µg/mL (≈ 4.26 µM).

With `C=CC1=C(C(=O)O)N2C(=O)C(NC(=O)C(O)c3csc(N)n3)[C@H]2SC1` (stereo partly shown) [Compound C, 7-[2-(2-Aminothiazol-4-yl)glycolamido]-3-vinyl-3-cephem-4-carboxylic acid], the figures for the MIC in data set [1] and in data set [2] were 0.78 µg/mL (≈ 2.04 µM) and 1.56 µg/mL (≈ 4.08 µM), respectively.

As to `C=CC1=C(C(=O)O)N2C(=O)C(NC(=O)Cc3cnc(NC=O)s3)[C@H]2SC1` (stereo partly shown) [Compound D, 7-[2-(2-Formamidothiazol-5-yl)acetamido]-3-vinyl-3-cephem-4-carboxylic aci d], the MIC was found to be 0.2 µg/mL (≈ 0.507 µM) in data set [1] and 0.39 µg/mL (≈ 0.989 µM) in data set [2].

`C=CC1=C(C(=O)O)N2C(=O)C(NC(=O)Cc3cnc(N)s3)[C@H]2SC1` (stereo partly shown) [Compound E, 7-[2-(2-Aminothiazol-5-yl)acetamido]-3-vinyl-3-cephem-4-carboxylic acid]: the MIC came to 0.05 µg/mL (≈ 0.136 µM) in data set [1] and 0.78 µg/mL (≈ 2.13 µM) in data set [2].

On to `C=CC1=C(C(=O)O)N2C(=O)C(NC(=O)Cc3cnc(NS(C)(=O)=O)s3)[C@H]2SC1` (stereo partly shown) [Compound F, 7-[2-(2-Methanesulfonamidothiazol-5-yl)acetamido]-3-vinyl-3-cephem-4-carboxylic acid], for which the figures for the MIC in data set [1] and in data set [2] were 0.39 µg/mL (≈ 0.877 µM) and 1.56 µg/mL (≈ 3.51 µM), respectively.

Take `Br.C=CC1=C(C(=O)O)N2C(=O)C(NC(=O)Cc3csc(NC(=N)N)n3)[C@H]2SC1` (stereo partly shown) [Compound G, 7-[2-(2-Guanidinothiazol-4-yl)acetamido]-3-vinyl-3-cephem-4-carboxylic aci d hydrobromide]: the MIC came out at 0.1 µg/mL in data set [1] and 0.39 µg/mL in data set [2].

As to `C=CC1=C(C(=O)O)N2C(=O)C(NC(=O)Cc3csc(N)n3)[C@H]2SC1` (stereo partly shown) [Compound H, 7-[2-(2-Aminothiazol-4-yl)acetamido]-3-vinyl-3-cephem-4-carboxylic acid], the results for the “minimal inhibitory concentration (MIC)” value in data set [1] and in data set [2] were 0.39 µg/mL (≈ 1.06 µM) and 0.78 µg/mL (≈ 2.13 µM), respectively.

On to `C=CC1=C(C(=O)O)N2C(=O)C(NC(=O)/C(=N\OC)c3csc(N)n3)C2SC1` (stereo not drawn) [Compound I, 7-[2-(2-Aminothiazol-4-yl)-2-methoxyiminoacetamido]-3-vinyl-3-cephem-4-carboxylic acid (syn isomer)], for which the values for the MIC in the data set on Proteus mirabilis 18 and with Proteus mirabilis 1 were less than 0.025 µg/mL and 0.05 µg/mL (≈ 0.122 µM), respectively.

Take `C=CC1=C(C(=O)O)N2C(=O)C(NC(=O)/C(=N\OCC)c3csc(N)n3)C2SC1` (stereo not drawn) [Compound J, 7-[2-(2-Aminothiazol-4-yl)-2-ethoxyiminoacetamido]-3-vinyl-3-cephem-4-carboxylic acid (syn isomer)]: the MIC amounted to 0.78 µg/mL (≈ 1.84 µM) in data set [1] and 1.56 µg/mL (≈ 3.68 µM) in data set [2].

As for `C=CC1=C(C(=O)O)N2C(=O)C(NC(=O)/C(=N\OCCCCCC)c3csc(N)n3)C2SC1` (stereo not drawn) [Compound K, 7-[2-(2-Aminothiazol-4-yl)-2-hexyloxyiminoacetamido]-3-vinyl-3-cephem-4-carboxylic acid (syn isomer)], the MIC in data set [1] is 0.78 µg/mL (≈ 1.63 µM); in data set [2], 1.56 µg/mL (≈ 3.25 µM).

`C=CC1=C(C(=O)O)N2C(=O)C(NC(=O)/C(=N\OCC(=O)OC[C@H](N)C(=O)O)c3csc(N)n3)C2SC1` (stereo partly drawn) [Compound L, 7-[2-(2-Aminothiazol-4-yl)-2-(L-2-amino-2-carboxyethoxycarbonylmethoxyimino)acetamido]-3-vinyl-3-cephem-4-carboxylic acid (syn isomer)]: the MIC with Proteus mirabilis 18 and in the data set on Proteus mirabilis 1 was 0.05 µg/mL (≈ 0.0925 µM) each time.

As for `C=CC1=C(C(=O)O)N2C(=O)C(NC(=O)/C(=N\OCC(=O)O)c3csc(N)n3)C2SC1` (stereo not drawn) [Compound M, 7-[2-(2-Aminothiazol-4-yl)-2-carboxymethoxyiminoacetamido]-3-vinyl-3-cephem-4-carboxylic acid (syn isomer)], the MIC in the data set on Proteus mirabilis 18 and in the data set on Proteus mirabilis 1 was less than 0.025 µg/mL in each case.

In the case of `C=CC1=C(C(=O)O)N2C(=O)C(NC(=O)/C(=N\OCC(=O)O)c3nc(N)sc3Cl)C2SC1` (stereo not drawn) [Compound N, 7-[2-(2-Amino-5-chlorothiazol-4-yl)-2-carboxymethoxyiminoacetamido]-3-vinyl-3-cephem-4-carboxylic acid (syn isomer)], the figures for the MIC in the data set with Proteus mirabilis 18, in the data set on Proteus mirabilis 1 and with Proteus vulgaris 2 were 0.05 µg/mL (≈ 0.102 µM), 0.2 µg/mL (≈ 0.41 µM) and 0.05 µg/mL (≈ 0.102 µM), respectively.

Regarding `C=CC1=C(C(=O)O)N2C(=O)C(NC(=O)/C(=N\OC/C=C/C(=O)O)c3csc(N)n3)C2SC1` (stereo not drawn) [Compound O, 7-[2-(2-Aminothiazol-4-yl)-2-(trans-3-carboxyallyloxyimino)acetamido]-3-vinyl-3-cephem-4-carboxylic acid (syn isomer)], the MIC is 0.1 µg/mL (≈ 0.209 µM) in the data set on Proteus mirabilis 18, 0.1 µg/mL (≈ 0.209 µM) with Proteus mirabilis 1 and less than 0.025 µg/mL with Proteus vulgaris 2.

In the case of `C=CC1=C(C(=O)O)N2C(=O)C(NC(=O)/C(=N\OCCCC(=O)O)c3csc(N)n3)C2SC1` (stereo not drawn) [Compound P, 7-[2-(2-Aminothiazol-4-yl)-2-(3-carboxypropoxyimino)acetamido]-3-vinyl-3-cephem-4-carboxylic acid (syn isomer)], the figures for the MIC in the data set on Proteus mirabilis 18, with Proteus mirabilis 1 and with Proteus vulgaris 2 were 0.05 µg/mL (≈ 0.104 µM), 0.1 µg/mL (≈ 0.208 µM) and less than 0.025 µg/mL, respectively.
